# Source: patent publication US20100222384A1 (priority 2009, published 2010)
# Tested on: Junin virus Candid #1 strain
# Type: cell-based
# Settings: read-out: EC50, Junin virus inhibition
row,Compound,EC50 [µM]
1,"[N-]=[N+]=Nc1ccc(NCCCCCCN2C[C@H](O)[C@@H](O)[C@H](O)[C@H]2CO)c([N+](=O)[O-])c1 [NAP-DNJ, N-(N-{4′-azido-2′-nitrophenyl}-6-aminohexyl)deoxynojirimycin]",10
2,"CCCCN1C[C@H](O)[C@@H](O)[C@H](O)[C@H]1CO [NB-DNJ, N-Butyl deoxynojirimycin]",350
3,"CCCCCCCCCN1C[C@H](O)[C@@H](O)[C@H](O)[C@H]1CO [NN-DNJ, N-Nonyl deoxynojirimycin]",60

# Tested on: Pichinde virus CoAn 3739 strain
# Type: cell-based
# Settings: not given
row,Compound,PICV in vitro inhibition
1,"CCCOCCCCCCN1C[C@H](O)[C@@H](O)[C@H](O)[C@H]1CO [N7-O-DNJ, N-(7-Oxadecyl)deoxynojirimycin]",70%
2,"COCCCCCCCCCN1C[C@H](O)[C@@H](O)[C@H](O)[C@H]1CO [N9-DNJ, N-(9-Methoxynonyl)deoxynojirimycin]",over 99%
3,"CCCCN1C[C@H](O)[C@@H](O)[C@H](O)[C@H]1CO [NB-DNJ, N-Butyl deoxynojirimycin]",over 50%
